Data on 1 compound can be found in ChEMBL document CHEMBL4402613, “Targeting ALK2: An Open Science Approach to Developing Therapeutics for the Treatment of Diffuse Intrinsic Pontine Glioma” (J Med Chem, 2020).

Activity calls are given as the source filed them. No cut-off for these calls is given here.

Data set [1] deals with T1, Serine/threonine-protein kinase A-Raf (Homo sapiens) (UniProt P10398).
T1 sequence (whole entry): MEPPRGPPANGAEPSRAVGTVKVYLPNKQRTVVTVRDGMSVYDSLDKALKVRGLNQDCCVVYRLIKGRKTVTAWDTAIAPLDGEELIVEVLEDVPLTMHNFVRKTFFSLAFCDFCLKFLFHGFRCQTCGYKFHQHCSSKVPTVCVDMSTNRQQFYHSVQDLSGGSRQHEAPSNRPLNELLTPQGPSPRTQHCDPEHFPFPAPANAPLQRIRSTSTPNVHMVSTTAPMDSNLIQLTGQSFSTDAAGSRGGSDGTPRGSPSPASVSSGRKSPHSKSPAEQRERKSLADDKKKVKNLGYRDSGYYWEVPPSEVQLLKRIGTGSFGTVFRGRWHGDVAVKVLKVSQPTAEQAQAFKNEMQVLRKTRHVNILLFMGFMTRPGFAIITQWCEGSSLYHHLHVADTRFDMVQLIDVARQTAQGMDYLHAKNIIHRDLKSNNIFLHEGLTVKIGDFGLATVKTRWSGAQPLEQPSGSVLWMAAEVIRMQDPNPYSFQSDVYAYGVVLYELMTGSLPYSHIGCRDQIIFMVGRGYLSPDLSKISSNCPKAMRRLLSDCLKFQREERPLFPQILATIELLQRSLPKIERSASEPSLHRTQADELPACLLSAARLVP
The data set can be described thus: Inhibition of ARAF (unknown origin) at 1 uM.

For data set [2] the following is noted: mouse, brain, po, 100 mg/kg, 4 h.
Description: Ratio of total drug concentration from brain to plasma in CB17 SCID mouse at 100 mg/kg, po measured after 4 hrs
For data set [3], the target named is Activin receptor type-1 (Homo sapiens, UniProt Q04771, R258G). The data set can be described thus: Inhibition of ALK2 R258G mutant (unknown origin).
Activin receptor type-1 (Homo sapiens, UniProt Q04771, R258G), sequence (Q04771 21-509 R258G limits assumed): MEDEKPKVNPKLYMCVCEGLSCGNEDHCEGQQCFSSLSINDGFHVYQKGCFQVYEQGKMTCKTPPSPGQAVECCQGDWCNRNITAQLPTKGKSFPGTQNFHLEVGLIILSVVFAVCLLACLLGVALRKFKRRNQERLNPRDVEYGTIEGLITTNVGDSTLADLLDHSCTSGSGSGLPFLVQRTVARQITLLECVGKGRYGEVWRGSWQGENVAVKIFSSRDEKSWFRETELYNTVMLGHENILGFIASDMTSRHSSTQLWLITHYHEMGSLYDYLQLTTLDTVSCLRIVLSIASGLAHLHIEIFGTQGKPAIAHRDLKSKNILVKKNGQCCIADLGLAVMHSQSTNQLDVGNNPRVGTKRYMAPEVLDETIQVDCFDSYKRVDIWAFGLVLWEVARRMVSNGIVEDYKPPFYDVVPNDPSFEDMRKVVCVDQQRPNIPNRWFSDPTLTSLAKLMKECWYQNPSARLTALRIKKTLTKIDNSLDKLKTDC
In data set [4] the target is T2, Activin receptor type-1 (Homo sapiens, UniProt Q04771).
T2 sequence (Q04771 whole entry): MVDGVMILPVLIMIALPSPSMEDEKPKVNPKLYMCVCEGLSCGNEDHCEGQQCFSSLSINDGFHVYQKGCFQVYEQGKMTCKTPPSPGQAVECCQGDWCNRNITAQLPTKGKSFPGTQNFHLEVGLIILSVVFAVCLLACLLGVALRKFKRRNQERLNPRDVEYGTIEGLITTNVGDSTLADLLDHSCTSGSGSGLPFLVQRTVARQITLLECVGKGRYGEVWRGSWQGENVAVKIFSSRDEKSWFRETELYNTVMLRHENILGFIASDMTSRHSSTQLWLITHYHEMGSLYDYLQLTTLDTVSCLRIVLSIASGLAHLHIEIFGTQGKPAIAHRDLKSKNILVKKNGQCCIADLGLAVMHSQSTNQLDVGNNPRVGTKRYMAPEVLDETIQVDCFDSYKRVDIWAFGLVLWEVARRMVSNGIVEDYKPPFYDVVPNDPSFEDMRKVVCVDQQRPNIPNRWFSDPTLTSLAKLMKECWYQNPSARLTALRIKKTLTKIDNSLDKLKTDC
The data set can be described thus: Inhibition of C-terminal nanoluciferase-fused ALK2 (unknown origin) expressed in HEK293 cells incubated for 2 hrs followed by NanoBRET NanoGlo Substrate addition by NanoBRET assay. Format: cell-based. (Bioluminescence resonance energy transfer reports proximity on the nanometre scale.)

The term IC50 denotes the concentration at which inhibition is half-maximal. The low end stands for inhibition by little substance, the high end for a need for much substance. On to `COc1cc(-c2cncc(-c3ccc(N4CCN(C)CC4)cc3)c2C)cc(F)c1C(N)=O`, for which, in data set [1], the inhibition result is “Active”. The BPR in data set [2] is given as 0.178. Further, the figures for the concentration for half-maximal inhibition (IC50) against Activin receptor type-1 [3] and against Activin receptor type-1 [4] were 17 nM and 93 nM, respectively.
